Test results: US20240058283A1, “THE MODE OF ACTION OF N-MeDCPA ON TRPC CHANNELS” (West Virginia University Board of Governors on Behalf of …, priority 2022, published 2024)

Key:
[1] = system: bone erosion in collagen-induced arthritis (CIA); experiment: Collagen-induced arthritis (CIA) bone erosion in mice; type: in vivo
Source text: Inflammatory arthritis often requires treatments with serious side effects. Later in arthritis, bone erosion is a major problem that causes severe pain and debilitation. There is no small molecule drug available to specifically treat arthritis bone erosion. […] In previous studies, we had focused on store-operated Ca^2+ entry as the target of ELP-004, since Orail is required for osteoclast differentiation and ELP-004 blocks RANKL-induced osteoclast differentiation and SOCE at similar concentrations. However, ELP-004 blocks bone erosion in vivo at a remarkable 1000-fold higher efficacy, leading us to question the identity of the critical ion channel. To address this question, we performed a series of ELP-004 dose responses on HEK293 cells overexpressing different combinations of STIM/Orai, TRPC channels or CaV1.2. Remarkably, all TRPC channels were highly sensitive to ELP-004, leading us to consider the possibility that TRPC channels are the true target in arthritis-induced bone erosion. We are currently assessing the possibility that ELP-004 may inhibit osteoclastogenesis with higher efficacy when driven by inflammatory cytokines, both in vitro and in vivo. […]

[2] = Metabolite formation in mouse liver S9; type: in vitro ADME; details: cofactors-fortified mouse liver S9, 37 degrees centigrade, 1 hour; LC-MS/MS
Experimental: (§1) Drug Synthesis—ELP-004 (N-MeDCPA) was synthesized as described in U.S. patent Ser. No. 10/682,320. […] Metabolites formed after incubations using either cofactors-fortified mouse or human liver S9 (mouse liver S9; human liver S9) at 37 degrees centigrade for 1 hour. The reaction was quenched by ultracentrifugation. The supernatant was analyzed using LC-MS/MS analysis using Accela LC (Thermo Scientific, Inc., San Jose, CA) coupled to an LTQ LX or to LTQ Orbitrap XL.
(§2) ELP-004 is N-(3,4-dichlorophenyl)-N-methylpropanamide. The core structure of ELP-004 is an aniline compound. Aniline compounds, generally, have a high risk of forming reactive metabolites. ELP-004 was specifically designed to preclude formation of reactive metabolites. Methylation of the amide nitrogen improves metabolic stability.

TRPC6 = biological target: T1, TRPC6 (Homo sapiens, UniProt Q9Y210); experiment: OAG-induced Ca2+ entry in Fura2-loaded HEK293 cells expressing TRPC6; type: cell-based; details: ELP-004 0 to 1 mM for 10 minutes before OAG, FIG. 1D, read-out: IC50, inhibition of OAG-induced Ca2+ entry
T1 construct: expressed in transfected cells
T1 sequence (Q9Y210 1-931): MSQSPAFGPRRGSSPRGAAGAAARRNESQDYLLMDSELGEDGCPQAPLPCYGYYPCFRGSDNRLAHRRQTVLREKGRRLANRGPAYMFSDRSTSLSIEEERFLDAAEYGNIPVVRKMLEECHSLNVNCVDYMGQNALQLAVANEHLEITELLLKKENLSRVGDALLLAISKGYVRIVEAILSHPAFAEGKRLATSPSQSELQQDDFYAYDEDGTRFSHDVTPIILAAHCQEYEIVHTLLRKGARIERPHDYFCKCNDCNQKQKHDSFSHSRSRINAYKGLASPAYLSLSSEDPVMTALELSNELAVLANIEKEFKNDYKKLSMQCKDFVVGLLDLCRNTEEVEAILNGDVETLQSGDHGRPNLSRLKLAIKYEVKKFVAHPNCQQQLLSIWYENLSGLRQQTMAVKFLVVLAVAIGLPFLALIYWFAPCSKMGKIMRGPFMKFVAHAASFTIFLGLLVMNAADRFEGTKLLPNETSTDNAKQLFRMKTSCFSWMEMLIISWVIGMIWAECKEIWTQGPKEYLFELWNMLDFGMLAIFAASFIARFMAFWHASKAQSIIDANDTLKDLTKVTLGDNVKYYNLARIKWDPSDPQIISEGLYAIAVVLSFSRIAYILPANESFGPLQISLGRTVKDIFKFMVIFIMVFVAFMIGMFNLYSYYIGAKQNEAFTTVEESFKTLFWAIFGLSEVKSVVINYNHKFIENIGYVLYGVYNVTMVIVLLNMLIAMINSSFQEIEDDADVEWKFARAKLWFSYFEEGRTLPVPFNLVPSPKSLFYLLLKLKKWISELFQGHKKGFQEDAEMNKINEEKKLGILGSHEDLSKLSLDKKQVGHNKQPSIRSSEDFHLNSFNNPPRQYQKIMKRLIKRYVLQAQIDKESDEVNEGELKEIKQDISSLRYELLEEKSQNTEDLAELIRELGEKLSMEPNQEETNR
Experimental: Inhibition of DAG-mediated TRPC activation. To determine if ELP-004 (N-MeDCPA) inhibits DAG-induced TRPC activation, HEK293 cells expressing TRPC3, TRPC6 or TRPC7 were loaded with Fura2 and incubated with ELP-004 (0 to 1 mM) for 10 minutes prior to challenging with 1-Oleoyl-2-acetyl-sn-glycerol (OAG), a membrane permeable form of diacylglycerol.
Cell Culture—HEK293 cells were grown in DMEM with 4.5 g/L glucose supplemented with 10% FBS and 1% Gentamycin (Full DMEM media; Thermo-Fisher Scientific, Waltham, MA) at 37° C. and 5% CO2. […]
TRPC activity assay—Cells grown on glass coverslips were incubated in a cation-safe buffer (107 mM NaCl, 7.2 mM KCl, 1.2 mM MgCl2, 11.5 mM Glucose, 20 mM HEPES-NaOH, 1 mM CaCl2), pH 7.2) and loaded with Fura2-acetoxymethylester (Fura2-AM; 2 μM) for 30 min at 24° C. as previously described^10,11. […] Ca^2+/Sr^2+ measurements were taken using a Leica DMI 6000B fluorescence microscope controlled by Slidebook software (Intelligent Imaging Innovations, Denver, CO). Fluorescence emission at 505 nm was monitored in response to excitation at alternating 340 nm and 380 nm wavelengths at a frequency of 0.67 Hz; intracellular Ca^2+ measurements are shown at 340/380 nm ratios obtained from groups of 35-45 single cells.

[3] = Metabolite formation in human liver S9; type: in vitro ADME; details: cofactors-fortified human liver S9, 37 degrees centigrade, 1 hour; LC-MS/MS
Experimental: as §1, §2

rats = details: rat, in vivo

CCC(=O)N(C)c1ccc(Cl)c(Cl)c1 [ELP-004, N-(3,4-dichlorophenyl)-N-methylpropanamide]
efficacy of blocking bone erosion in vivo relative to RANKL-induced osteoclast differentiation and SOCE ([1]; in vivo versus in vitro concentrations): 1000 fold | bone erosion in collagen-induced arthritis ([1]; mice, even after symptoms of arthritis were measurable): strongly suppressed bone erosion | formation of reactive or toxic metabolites [2]: No reactive or toxic compounds were formed | IC50 (TRPC6): 1000 to 2000 nM | formation of reactive or toxic metabolites [3]: No reactive or toxic compounds were formed | oral LD50 (rats): > 2.5 g/kg body weight
